# Assay results taken from patent publication US10322112B2, “Compound combinations for attenuation of bacterial virulence” (priority 2016, dated 2019).
# Key:
# LasR [1] = molecular target: T1, LasR (Pseudomonas aeruginosa, UniProt P25084); test: E. coli reporter gene primary antagonism assay, LasR; type: cell-based; conditions: compounds at 100 mm against 2 nm OdDHL; E. coli beta-galactosidase reporter strain JLD271/pJN105L/pSC11; untreated culture = 100%; negative values indicate receptor agonism; error ±10%
# T1 construct: expressed in transfected cells; host or cells: E. coli JLD271
# Experimental: (§1) Percent agonism of a given non-native inducer in a given bacterium and QS system receptor is measured with resepct to the maximum level of agonism (activation) by the native ligand of that receptor in the given bacterium. Percent antagonism is measured in competitive assays. The QS system of interest is activated to 100% with added or endogenous native ligand and the % antagonism of the non-native inducer is assessed with respect to 100% activation by the native inducer. The native ligand which induces LasR is OdDHL, which induces RhlR is BHL and which induces PqsR is PQS. As described herein and in cited references, assays for assessment of % agonism or % atangonism may be performed in E. coli systems (heterologous) or in the bacterium of interest, e.g., Pseudomonas. Dependent upon the assay system employed native ligand may be endogenously present or it may be exogenously supplied to the assay system. […] In antagonism assays using the native strains with functional QS systems, e.g., those of P. aeruginosa, endogenous native ligand is made in the system, so no native ligand is added. In native strains having one or more non-functional QS systems (mutant strains), e.g., P. aeruginosa mutants with non-functional QS systems, native ligand is added at about 10-100× the EC50 of the native ligand. In the agonism assay, native ligand is added as a control. Details of the assays are provided herein in Example 9 and in references cited in Example 9.
# RhlR [2] = molecular target: T2, RhlR (Pseudomonas aeruginosa, UniProt P54292); test: E. coli reporter gene antagonism assay, RhlR; type: cell-based; conditions: compounds at 100 mm in the presence of 10 mm BHL; untreated culture = 100%; error ±10%; selected data reproduced from Welsh et al. 2015
# T2 construct: expressed in transfected cells; host or cells: E. coli JLD271
# Experimental: as §1
# QscR [3] = molecular target: T3, QscR (Pseudomonas aeruginosa, UniProt G3XD77); type: cell-based; design: expressed in transfected cells; host or cells: E. coli JLD271; conditions: compounds at 100 mm against 15 nm OdDHL; E. coli reporter strain JLD271/pJN105Q/pSC11-Q; untreated culture = 100%; error ±10%
# Description: (§2) Construction of pSC11-Q: A 348 bp fragment spanning the upstream region of PA1897 (¢304 to +43 relative to the PA1897 translationalstart codon) was amplified from plasmid pJL101*by using primers 5′-GAATAT GGATCC TCTCTC CGCAGA TACCTG-3′ (BamHI site underlined) SEQ ID NO:5 and 5′-GCTATT GAATTC TGAAGA TGAATA GCGCCAC-3′ (EcoRI site underlined) SEQ ID NO:6. The PCR-generated fragment was digested with EcoRI and BamHI and subsequently ligated into EcoRI/BamHI-digested pPROBE-KT to generate pPROBE-KQ2. […] CGCC-3′ (BamHI site underlined) SEQ ID NO:8. The PCR-generated fragment was digested with SalI and BamHI and subsequently ligated into SalI/BamHI-digested pSC11 to generate pSC11-Q.
# (§3) E. coli reporter gene assays: Primary assays for RhlR, LasR, and QscR activity in E. coli JLD271 reporter (beta-galactosidase) strains were performed as reported by Welsh et al. 2015, with the following modifications:
# (§4) For all primary and dose-response antagonism assays, the concentration of native ligand utilized was approximately equal to its EC50 value in each bacterial reporter strain. For RhlR, LasR, and QscR primary antagonism assays, synthetic ligand (100 mm) was screened against BHL (10 mm), OdDHL (2 nm), and OdDHL (15 nm), respectively. For RhlR, LasR, and QscR primary agonism assays, synthetic compound (100 mm) was screened alongside and compared to the natural ligand (900 mm BHL or 100 mm OdDHL) for the receptor. As part of the beta-galactosidase assay protocol, plates to which CPRG substrate had been added were incubated at either 25° C. (LasR assay) or 30° C. (RhlR and QscR assays) until positive control wells developed a deep red color (10 min for LasR, 30 min for RhlR, and 60 min for QscR). Dose-response reporter gene assays were performed according to these protocols by using varying concentrations of compound.
# LasR [4] = molecular target: T1, LasR; test: E. coli reporter gene primary agonism assay, LasR; type: cell-based; conditions: compounds at 100 mm; E. coli reporter strain JLD271/pJN105L/pSC11; 100 mm OdDHL = 100%; error ±10%
# Experimental: as §1
# RhlR [5] = molecular target: T2, RhlR; test: E. coli reporter gene primary agonism assay, RhlR; type: cell-based; conditions: compounds at 100 mm; 900 mm BHL = 100%; error ±10%; selected data reproduced from Welsh et al., 2015
# Experimental: as §1
# QscR [6] = molecular target: T3, QscR; conditions: compounds at 100 mm; E. coli reporter strain JLD271/pJN105Q/pSC11-Q; 100 mm OdDHL = 100%; error ±10%
# Description: as §2, §3, §4
# T1 sequence (P25084 whole entry): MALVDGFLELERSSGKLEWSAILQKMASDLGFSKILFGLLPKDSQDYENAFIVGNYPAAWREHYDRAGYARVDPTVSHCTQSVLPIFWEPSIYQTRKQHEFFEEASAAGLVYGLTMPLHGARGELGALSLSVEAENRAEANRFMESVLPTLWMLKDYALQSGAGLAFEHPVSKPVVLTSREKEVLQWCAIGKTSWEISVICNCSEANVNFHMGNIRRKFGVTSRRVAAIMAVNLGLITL
# T2 sequence (P54292 whole entry): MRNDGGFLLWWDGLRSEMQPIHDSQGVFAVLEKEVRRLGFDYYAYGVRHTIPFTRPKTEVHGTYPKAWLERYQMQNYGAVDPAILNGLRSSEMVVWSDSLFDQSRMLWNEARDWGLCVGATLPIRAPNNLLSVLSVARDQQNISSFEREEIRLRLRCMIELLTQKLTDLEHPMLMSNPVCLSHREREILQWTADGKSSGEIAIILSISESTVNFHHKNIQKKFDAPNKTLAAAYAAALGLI
# T3 sequence (G3XD77 entry or part of it): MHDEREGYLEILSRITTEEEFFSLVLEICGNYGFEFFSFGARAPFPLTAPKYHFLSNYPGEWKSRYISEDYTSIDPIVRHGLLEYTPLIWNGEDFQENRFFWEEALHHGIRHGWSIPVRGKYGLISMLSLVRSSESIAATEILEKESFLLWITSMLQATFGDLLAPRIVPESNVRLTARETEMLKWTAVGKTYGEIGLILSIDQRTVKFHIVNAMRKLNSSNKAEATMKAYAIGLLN
Compound,Inhibition [%] LasR (LasR [1]) [%],Inhibition [%] RhlR (RhlR [2]) [%],Inhibition [%] QsCR (QscR [3]) [%],Activation [%] LasR (LasR [4]) [%],Activation [%] RhlR (RhlR [5]) [%],Activation [%] QscR (QscR [6]) [%]
O=C(Cc1ccc(Br)cc1)N[C@@H]1CCOC1=O [B4],15,66,37,,,
O=C(CC1CCCC1)N[C@H]1CCOC1=O [B12],,,,−10,79,12
O=C(Cc1ccccc1)N[C@H]1CCOC1=O [C1],,,,−3,84,3
O=C(Cc1ccc(F)cc1)N[C@H]1CCOC1=O [C2],,,,12,71,10
O=C(Cc1cccc(F)c1)N[C@H]1CCOC1=O [C3],,,,−2,79,13
O=C(Cc1ccccc1F)N[C@H]1CCOC1=O [C4],,,,−4,66,0
O=C(Cc1cccc(Cl)c1)N[C@H]1CCOC1=O [C6],,,,30,82,30
O=C(Cc1cccc(Br)c1)N[C@H]1CCOC1=O [C8],,,,44,80,33
O=C(Cc1ccc(I)cc1)N[C@H]1CCOC1=O [C10],58,84,−79,,,
O=C(Cc1cccc(I)c1)N[C@H]1CCOC1=O [C11],,,,56,63,34
O=C(Cc1ccc([N+](=O)[O-])cc1)N[C@H]1CCOC1=O [C13],91,60,14,,,
O=C(Cc1c(F)c(F)c(F)c(F)c1F)N[C@H]1CCOC1=O [C16],76,66,74,,,
Cc1ccc(CC(=O)N[C@H]2CCOC2=O)cc1 [C19],81,87,64,,,
O=C(Cc1ccc(C(F)(F)F)cc1)N[C@H]1CCOC1=O [C20],93,86,26,,,
O=C(COc1ccc(OC(F)(F)F)cc1)N[C@H]1CCOC1=O [D15],−80,61,4,,,
CSc1ccc(CC(=O)N[C@H]2CCOC2=O)cc1 [E6],85,78,24,,,
O=C(Cc1ccc(SC(F)(F)F)cc1)N[C@H]1CCOC1=O [E8],23,65,40,,,
O=C(Cc1ccc(Cl)c(Cl)c1)N[C@H]1CCOC1=O [E11],28,62,15,,,
O=C(Cc1ccc2ccccc2c1)N[C@H]1CCOC1=O [E12],81,77,60,,,
Cc1ccc(OCC(=O)N[C@H]2CCOC2=O)cc1 [E15],84,75,33,,,
COc1ccc(OCC(=O)N[C@H]2CCOC2=O)cc1 [E17],83,66,36,,,
O=C(COc1ccc(Br)cc1)N[C@H]1CCOC1=O [E21],31,66,20,,,
O=C(COc1ccc(C(F)(F)F)cc1)N[C@H]1CCOC1=O [E23],−49,64,22,,,
CSc1ccc(CCC(=O)N[C@H]2CCOC2=O)cc1 [E34],−52,62,−190,,,
O=C(CCCC1CCCCC1)N[C@H]1CCOC1=O [S6],56,69,34,,,
